Earlier results, collected in patent US6464987B1, “Pharmaceutical compositions capable of being gelled” (UCB, S.A., priority 1998, dated 2002).
Where two headings read alike, the source gives them in different places.

Experiments:
[1] = mouse, in vivo
[2] = system: humans; conditions: PLA-GA implants or PLA-GA microparticles

bioavailability ([1]; im) [%] | bioavailability ([1]; sc) [%] | SMILES | level of testosterone in the blood [2]
31.4 | 67.5 | NC(=O)[C@@H]1CCCN1C(=O)[C@H](Cc1cnc[nH]1)NC(=O)[C@@H]1CCC(=O)N1 [TRH, thyrotropin releasing hormone] | 
 |  | CC(C)C[C@H](NC(=O)[C@@H](COC(C)(C)C)NC(=O)[C@H](Cc1ccc(O)cc1)NC(=O)[C@H](CO)NC(=O)[C@H](Cc1c[nH]c2ccccc12)NC(=O)[C@H](Cc1cnc[nH]1)NC(=O)[C@@H]1CCC(=O)N1)C(=O)N[C@@H](CCCNC(=N)N)C(=O)N1CCC[C@H]1C(=O)NNC(N)=O [gosereline] | very significant and lasting decrease
